This is an account of results in patent US20230056205A1, “SUBSTITUTED 4,6-DIHYDROSPIRO[[1,2,3]TRIAZOLO[4,5-B]PYRIDINE-7,3'-INDOLINE]-2',5(3H)-DIONE ANALOGUES” (The Board of Regents of The University of Texas System, priority 2019, published 2023).

“Also recorded” adds a separate entry of the source. Where only a bound is given, the exact number is not on record here.

Data set [1] concerns DENV-1 replicon. The data set can be described thus: Luciferase reporter replicon-based screening, DENV-1. The data set is classed as cell-based, DENV-1 (strain WestPac). The following applies: for EC50: Dengue virus, DENV1, Huh-7, 48 h, read-out: EC50 DENV-1. The procedure, abridged:
(§1)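 Huh7 cells carrying Renilla luciferase/neo replicons of DENV-1 (WestPac), DENV-2 (NGC), DENV-3 (D3MY05-34640) or DENV-4 (D4MY01-22713), treated with 2-fold compound dilutions for 48 h at 37 °C in duplicate. Live-cell luciferase read; EC50 by four-parameter logistic fit.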

Data set [2] in a line: Cytotoxicity assay (CellTiter-Glo). The data set is classed as cell-based. The following applies: human, Huh7 cells stably expressing DENV-2 replicon. The procedure, abridged:
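Huh7 or Huh7 replicon cells, seeded overnight at 37 °C, exposed to 2-fold serial dilutions of compound for 48 h in duplicate. Viability by CellTiter-Glo, normalised to 0.45% DMSO wells (100%); CC50 by four-parameter logistic regression.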
(In general: In ATP-based viability assays light output follows the ATP content of the culture.)

Data set [3] deals with DENV-4 replicon. Kind of data set: Luciferase reporter replicon-based screening, DENV-4. The data set is classed as cell-based, DENV-4 (strain D4MY01-22713). The following applies: for EC50: Dengue virus, DENV4, Huh-7, 48 h, read-out: EC50 DENV-4. The procedure, abridged: as §1
A general note: Reporter assays use an easily measured gene product as a stand-in for the process of interest.

For data set [4], the system named is DENV-2 strain NGC. The data set can be described thus: Viral titer reduction assay, DENV-2 strain NGC. Type of data set: cell-based. The note with it: Dengue virus, DENV2, Huh-7; viral titer reduction assay on Huh7 cells. As for the experimental part:
Viral Titer Reduction Assay. Huh7 cells were seeded in a 96-well plate. The next day, cells were infected with DENV-2 strains NGC or D2Y98P at a MOI of 0.3 in the presence of 2-fold serial dilutions of compounds. Experiments were performed in triplicates. After incubation at 37° C. for 48 h, cell culture fluids were harvested. The infectious viruses in the culture fluids were determined by plaque assay using a protocol as described previously.^48 The EC50 values were calculated using four parameter logistic regression in GraphPad software Prism 8.0.

Data set [5] relates to DENV-2 replicon. Kind of data set: Luciferase reporter replicon-based screening, DENV-2. The data set is classed as cell-based, DENV-2 (New Guinea C strain, NGC). The note with it: for EC50: Dengue virus, DENV2, Huh-7, 48 h, read-out: EC50 DENV-2, Huh7 cells stably expressing DENV-2 replicon, 48 h. Put shortly: as §1
Data set [6] relates to P12 resistant DENV-2 viruses (NS4B V63M or V63L). Type of data set: cell-based, DENV-2 strain NGC.
Data set [7] is described as follows: in vivo. Type of data set: in vivo, male SD rats. As for the experimental part:
In Vivo PK Studies. The PK profiles of compound 15 were determined in male SD rats following intravenous (i.v.) and oral (p.o.) administration of 10 and 20 mg/kg, respectively. The formulations used for i.v. and p.o. were solution in DMSO: 20% HP-β-CD in saline = 1:9. IV bolus injection, animal number N = 3; dose level: 10 mg/kg; sample collection time points: 5 min, 15 min, 30 min, 1 h, 2 h, 4 h, 8 h, 24 h; PO: animal number N = 3; fasting 12 h, dose level: 20 mg/kg; sample collection time points: 15 min, 30 min, 1 h, 2 h, 4 h, 8 h, 24 h. Plasma concentrations of compound 15 were measured by API-4000/5500 LC-MS/MS with 8 point standard curve and 6 QCs. Pharmacokinetic parameters were calculated by a non-compartmental approach using WinNonLin software.

In data set [8] the test system is DENV-3 replicon. The data set can be described thus: Luciferase reporter replicon-based screening, DENV-3. Type of data set: cell-based, DENV-3 (strain D3MY05-34640). The following applies: for EC50: Dengue virus, DENV3, Huh-7, 48 h, read-out: EC50 DENV-3, Huh7 cells stably expressing DENV-3 replicon, 48 h. Put shortly:
as §1

In data set [9] the target is T1, DENV-2 viral NS4B protein (Dengue virus type 2, UniProt P14340).
T1 construct: endogenous in cells; host or cells: Huh7 cells infected with DENV-2 strain NGC (virus-encoded protein in the lysate)
The data set can be described thus: Pull-down assay with biotinylated compounds. Type of data set: binding, DENV-2 strain NGC. The note with it: lysates of DENV-2 infected Huh7 cells, streptavidin beads, Western blot. The protocol: Pull-Down Assay. 4 × 10^6 Huh7 cells were seeded in a T-75 flask. The next day, cells were infected with DENV-2 strain NGC at a MOI of 2.0 in the presence of 10 µM compound 73 or 75. Cells treated with 0.25% DMSO were used as a control. After 48 h-incubation at 37° C., cells were harvested and lysed in 500 µL lysis buffer comprising 20 mM Tris-HCL pH 7.5, 100 mM NaCl, 0.5% DDM, and EDTA-free protease inhibitor cocktail (Roche). After removing the cell debris by centrifugation at 15000 rpm for 10 min, the lysates were mixed with corresponding compound at a final concentration of 100 µM or DMSO (0.25%) prior to incubation with 80 µL Streptavidin Magnetic Beads (ThermoFisher Scientific). After incubation at 4° C. overnight with agitation, the beads were washed 5 times with PBST buffer (PBS containing 0.1% Tween 20). The beads were finally mixed with 1 × LDS sample buffer (ThermoFisher Scientific) containing 100 mM dithiothreitol (DTT, Sigma-Aldrich) and heated at 95° C. for 10 minutes to elute the bead-associated proteins. The eluates and cell lysates were loaded onto a 12% SDS-PAGE and viral NS4B proteins were detected by a mouse monoclonal antibody according to the protocol as reported previously.^56
On the technique in general: Immunoblotting shows a protein as a band on a membrane.

Where [10] appears, read: at the concentration up to 10 µM (data not shown).

For orientation: EC50 means the concentration that produces a half-maximal response. One may read the CC50 as the concentration at which the toxic effect on the cells reaches its halfway point. Higher therefore signals better tolerance by the cells. One may read the MRT as a mean duration of stay, worked out from the concentration-time curve. As usually defined, the t½ is how long it takes for the measured level to halve. Low readings indicate fast loss, high ones slow loss. As usually defined, the Tmax is the time at which the peak concentration occurs. In general, bioavailability refers to the share of a dose that reaches the circulation, judged against a reference dose that is usually intravenous. For the molecule `CC(C)CCN1C(=O)[C@]2(CC(=O)Nc3c2nnn3[C@@H](C)c2ccc(Cl)cc2)c2cc(Cl)ccc21` [Compound 15, (R)-5'-Chloro-3-((S)-1-(4-chlorophenyl)ethyl)-1'-isopentyl-4,6-dihydrospiro[[1,2,3]triazolo[4,5-b]pyridine-7,3'-indoline]-2ʹ,5(3H)-dione], the EC50 in data set [1] was 0.78 µM; in data set [3], over 5 µM; in data set [4], about 0.1 µM; in [5], 0.16 µM; in data set [6] (viral reduction assay on Huh7 cells, read-out: EC50 against resistant viruses P12-VI) it was 2 µM; in [8], 0.035 µM. In [2], this molecule came in with a CC50 at 48 h of over 10 µM. Further, the “increase of viral resistance by mutation NS4B V63L” value in data set [6] (P12-VI virus, Huh7 cells) came to 16 folds. Also, the “AUC0- ∞” value was 10,334 ng·h/mL in data set [7] (iv 10 mg/kg, rat plasma) and 6,240 ng·h/mL in data set [7] (po 20 mg/kg, rat plasma). For the same molecule, the CL in [7] (iv 10 mg/kg, rat plasma) was determined as 0.82 L/h/kg; in [7] (po 20 mg/kg, rat plasma), 3.57 L/h/kg. The Cmax in data set [7] (iv 10 mg/kg, rat plasma) is 10,334 ng/mL; in [7] (po 20 mg/kg, rat plasma), 1,517 ng/mL. In addition, the MRT is reported as 2.28 h in [7] (iv 10 mg/kg, rat plasma) and 3.46 h in [7] (po 20 mg/kg, rat plasma). Moreover, the Vss in data set [7] (iv 10 mg/kg, rat plasma) was 2.67 L/kg; in data set [7] (po 20 mg/kg, rat plasma) it was 11.54 L/kg. Also, the t½ turned out to be 2.29 h in data set [7] (iv 10 mg/kg, rat plasma) and 2.24 h in data set [7] (po 20 mg/kg, rat plasma). For the same molecule, the time of peak concentration (Tmax) in [7] (male, SD, in vivo, po 20 mg/kg, rat plasma) stood at 1 h. Further, the bioavailability in data set [7] (male, SD, rat, in vivo, po 20 mg/kg vs iv 10 mg/kg, rats, read-out: F (absolute oral bioavailability)) worked out at 30%.
As for `C[C@@H](c1ccc(Cl)cc1)n1nnc2c1NC(=O)C[C@]21C(=O)N(CCCN(C)C)c2ccc(Cl)cc21` [Compound 63, (R)-5'-Chloro-3-((S)-1-(4-chlorophenyl)ethyl)-1'-(3-(dimethylamino)propyl)-4,6-dihydrospiro[[1,2,3]triazolo[4,5-b]pyridine-7,3'-indoline]-2',5(3H)-dione], the EC50 was over 5 µM in data set [1], over 5 µM in data set [3], 0.025 µM in data set [5] and 0.001 µM in [8]. In data set [2], this molecule came in with a CC50 at 48 h of over 10 µM. Besides, the “increase of EC50 of resistant viruses (resistance fold vs P0 DENV-2)” value in data set [6] (after twelve rounds of selection with compound 63, selections III to VI, Huh7 cells) is over 100 folds.
With `C[C@@H](c1ccc(Cl)cc1)n1nnc2c1NC(=O)C[C@]21C(=O)N(CCOC(=O)CCCCCCCNC(=O)CCCC[C@@H]2SC[C@@H]3NC(=O)N[C@@H]32)c2ccc(Cl)cc21` [Compound 73, 2-((R)-5'-Chloro-3-((S)-1-(4-chlorophenyl)ethyl)-2',5-dioxo-3,4,5,6-tetrahydrospiro[[1,2,3]triazolo[4,5-b]pyridine-7,3'-indolin]-1'-yl)ethyl 8-(5-((3aS,4S,6aR)-2-oxohexahydro-1H-thieno[3,4-d]imidazol-4-yl)pentanamido)octanoate], in [1] (setting [10]), the “activity against DENV-1” value is reported as “no significant activity”. Also, the “activity against DENV-4” value in data set [3] (setting [10]) is listed as “no significant activity”. For the same molecule, the EC50 is 0.041 µM in [5] and 0.017 µM in [8]. Besides, the “pull down of / association with viral NS4B protein” value in [9] is given as “can pull down viral NS4B protein; also recorded: associated with DENV-2 viral NS4B protein”.
With `C[C@@H](c1ccc(Cl)cc1)n1nnc2c1NC(=O)C[C@@]21C(=O)N(CCOC(=O)CCCCCCCNC(=O)CCCC[C@@H]2SC[C@@H]3NC(=O)N[C@@H]32)c2ccc(Cl)cc21` [Compound 75, 2-((S)-5'-Chloro-3-((S)-1-(4-chlorophenyl)ethyl)-2',5-dioxo-3,4,5,6-tetrahydrospiro[[1,2,3]triazolo[4,5-b]pyridine-7,3'-indolin]-1'-yl)ethyl 8-(5-((3aS,4S,6aR)-2-oxohexahydro-1H-thieno[3,4-d]imidazol-4-yl)pentanamido)octanoate], the “remains active against DENV-2” value in [5] (FIG. 1B) is recorded as “not”. Also, in [9], the “pull down of / association with viral NS4B protein” value is “not”. Besides, in [8] (FIG. 1B), the “remains active against DENV-3” value was “not”.
